Patent publication US8822430B2 (Gilead Sciences, Inc., priority 2009, dated 2014)

Tested on: HCV 1b RLuc cells (dicistronic genotype 1b Con1 replicon)
Experiment: Renilla luciferase (RLuc)-based HCV replicon reporter assay
Assay type: cell-based, HCV genotype 1b
Conditions: Hepatitis C virus, 72 h, HCV 1b RLuc replicon, 72 hours; read-out: Activity (antiviral potency [EC50])
Procedure, shortened: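 EC50 values were calculated by non-linear regression of Renilla luciferase signal from lysed cells after 72 h of compound exposure. Cells harboured a genotype 1b Con1 dicistronic replicon encoding RLuc. Compounds were serially diluted in DMSO from 10 mM stocks into culture media.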

SMILES: COC(=O)N[C@H](C(=O)N1CCC[C@H]1c1ncc(-c2ccc(-c3cnc(-c4ccc(-c5cnc([C@@H]6CCCN6C(=O)[C@@H](NC(=O)OC)C(C)C)[nH]5)cc4)s3)cc2)[nH]1)C(C)C
- EC50: 0.0385 nM

SMILES: COC(=O)N[C@H](C(=O)N1CCC[C@H]1c1ncc(-c2ccc(-c3ccc(-c4ccc(-c5cnc([C@@H]6CCCN6C(=O)[C@@H](NC(=O)OC)C(C)C)[nH]5)cc4)s3)cc2)[nH]1)C(C)C
- EC50: 0.0989 nM

SMILES: COC(=O)N[C@H](C(=O)N1CCC[C@H]1c1ncc(-c2ccc(-c3cccc4c(-c5ccc(-c6cnc([C@@H]7CCCN7C(=O)[C@@H](NC(=O)OC)C(C)C)[nH]6)cc5)cccc34)cc2)[nH]1)C(C)C
- EC50: 26.7 nM

SMILES: COC(=O)N[C@H](C(=O)N1CC2(CC2)C[C@H]1c1ncc(-c2ccc3cc(-c4ccc(-c5cnc([C@@H]6[C@H]7CC[C@H](C7)N6C(=O)[C@@H](NC(=O)OC)C6CCOCC6)[nH]5)cc4)ccc3c2)[nH]1)C(C)C
- EC50: 0.0115 nM

SMILES: COC(=O)N[C@H](C(=O)N1CC2(CC2)C[C@H]1c1ncc(-c2ccc3cc(-c4ccc(-c5cnc([C@@H]6[C@H]7CC[C@H](C7)N6C(=O)[C@@H](NC(=O)OC)C6CCOCC6)[nH]5)cc4)ccc3c2)[nH]1)C1CCOCC1
- EC50: 0.0255 nM

SMILES: COC(=O)N[C@H](C(=O)N1CC2(CC2)C[C@H]1c1ncc(-c2ccc3cc(-c4ccc(-c5cnc([C@@H]6[C@H]7CC[C@H](C7)N6C(=O)[C@@H](NC(=O)OC)C(C)(C)C)[nH]5)cc4)ccc3c2)[nH]1)C(C)C
- EC50: 0.009 nM

SMILES: COC(=O)N[C@H](C(=O)N1CC2(CC2)C[C@H]1c1ncc(-c2ccc(-c3ccc4cc(-c5cnc([C@@H]6CC7(CC7)CN6C(=O)[C@@H](NC(=O)OC)C(C)C)[nH]5)ccc4c3)cc2)[nH]1)C(C)C
- EC50: 0.0048 nM

SMILES: COC(=O)N[C@@H](CCC#N)C(=O)N1CC2(CC2)C[C@H]1c1ncc(-c2ccc3cc(-c4ccc(-c5cnc([C@@H]6[C@H]7CC[C@H](C7)N6C(=O)[C@@H](NC(=O)OC)C(C)C)[nH]5)cc4)ccc3c2)[nH]1
- EC50: 0.0159 nM

SMILES: COC(=O)N[C@H](C(=O)N1CC2(CC2)C[C@H]1c1ncc(-c2ccc(-c3ccc4cc(-c5cnc([C@@H]6[C@H]7CC[C@H](C7)N6C(=O)[C@@H](NC(=O)OC)C(C)C)[nH]5)ccc4c3)cc2)[nH]1)C(C)C
- EC50: 0.0076 nM

SMILES: COC(=O)N[C@H](C(=O)N1CC2(CC2)C[C@H]1c1ncc(-c2ccc(-c3ccc4cc(-c5cnc([C@@H]6[C@H]7CC[C@H](C7)N6C(=O)[C@@H](NC(=O)OC)C(C)(C)OC)[nH]5)ccc4c3)cc2)[nH]1)C(C)C
- EC50: 0.0155 nM

SMILES: COCCO[C@H]1C[C@@H](c2ncc(-c3ccc(-c4ccc5cc(-c6cnc([C@@H]7CC8(CC8)CN7C(=O)[C@@H](NC(=O)OC)C(C)C)[nH]6)ccc5c4)cc3)[nH]2)N(C(=O)[C@@H](NC(=O)OC)C(C)C)C1
- EC50: 0.0146 nM

SMILES: COC(=O)N[C@H](C(=O)N1C[C@@H](Oc2cnccn2)C[C@H]1c1ncc(-c2ccc(-c3ccc4cc(-c5cnc([C@@H]6CC7(CC7)CN6C(=O)[C@@H](NC(=O)OC)C(C)C)[nH]5)ccc4c3)cc2)[nH]1)C(C)C
- EC50: 0.014 nM

SMILES: COC(=O)N[C@H](C(=O)N1CC2(CC2)C[C@H]1c1ncc(-c2ccc(-c3ccc4cc(-c5cnc([C@@H]6[C@H]7CC[C@H](C7)N6C(=O)[C@@H](NC(=O)OC)C6CC6)[nH]5)ccc4c3)cc2)[nH]1)C(C)C
- EC50: 0.0534 nM

SMILES: COC(=O)N[C@H](C(=O)N1[C@@H]2CC[C@@H](C2)[C@H]1c1ncc(-c2ccc3cc(-c4ccc(-c5cnc([C@@H]6CC7(CC7)CN6C(=O)[C@@H](NC(=O)OC)C6CC6)[nH]5)cc4)ccc3c2)[nH]1)C(C)C
- EC50: 0.286 nM

SMILES: COC(=O)N[C@@H](CCOC(F)F)C(=O)N1[C@@H]2CC[C@@H](C2)[C@H]1c1ncc(-c2ccc(-c3ccc4cc(-c5cnc([C@@H]6CC7(CC7)CN6C(=O)[C@@H](NC(=O)OC)C(C)C)[nH]5)ccc4c3)cc2)[nH]1
- EC50: 0.008 nM

SMILES: COC(=O)N[C@H](C(=O)N1CC2(CC2)C[C@H]1c1ncc(-c2ccc3cc(-c4ccc(-c5cnc([C@@H]6[C@H]7CC[C@H](C7)N6C(=O)[C@@H](NC(=O)OC)C(C)OC)[nH]5)cc4)ccc3c2)[nH]1)C(C)OC (stereo partly drawn)
- EC50: 0.0201 nM

SMILES: COC(=O)N[C@H](C(=O)N1[C@@H]2CC[C@@H](C2)[C@H]1c1ncc(-c2ccc(-c3ccc4cc(-c5cnc([C@@H]6CC7(CC7)CN6C(=O)[C@@H](NC(=O)OC)C(C)C)[nH]5)ccc4c3)cc2)[nH]1)c1ccccc1
- EC50: 0.0071 nM

SMILES: COC(=O)N[C@H](C(=O)N1CC2(CC2)C[C@H]1c1ncc(-c2ccc3cc(-c4ccc(-c5cnc([C@@H]6[C@H]7CC[C@H](C7)N6C(=O)[C@H](NC(=O)OC)c6ccccc6)[nH]5)cc4)ccc3c2)[nH]1)C(C)C
- EC50: 0.0261 nM

SMILES: COC(=O)N[C@@H](CCOC(F)F)C(=O)N1CC2(CC2)C[C@H]1c1ncc(-c2ccc3cc(-c4ccc(-c5cnc([C@@H]6[C@H]7CC[C@H](C7)N6C(=O)[C@@H](NC(=O)OC)C(C)C)[nH]5)cc4)ccc3c2)[nH]1
- EC50: 0.0114 nM

SMILES: COC[C@H]1C[C@@H](c2ncc(-c3ccc(-c4ccc5cc(-c6cnc([C@@H]7CC8(CC8)CN7C(=O)[C@@H](NC(=O)OC)C(C)C)[nH]6)ccc5c4)cc3)[nH]2)N(C(=O)[C@@H](NC(=O)OC)C(C)C)C1
- EC50: 0.0073 nM

SMILES: CC[C@H](C)[C@H](NC(=O)OC)C(=O)N1CCC[C@H]1c1ncc(C#Cc2ccc3cc(-c4cnc([C@@H]5CCCN5C(=O)[C@@H](NC(=O)OC)[C@@H](C)CC)[nH]4)ccc3c2)[nH]1
- EC50: 0.0147 nM

SMILES: COC(=O)NC(C(=O)N1CCC[C@H]1c1ncc(-c2ccc(-c3ccc4cc(-c5cnc([C@@H]6CCCN6C(=O)[C@@H](NC(=O)OC)C(C)C)[nH]5)ccc4c3)cc2)[nH]1)c1ccccc1 (stereo partly drawn)
- EC50: 0.0097 nM

SMILES: COC(=O)NC(C(=O)N1CC2(CC2)C[C@H]1c1ncc(-c2ccc3cc(-c4ccc(-c5cnc([C@@H]6[C@H]7CC[C@H](C7)N6C(=O)[C@@H](NC(=O)OC)C(C)C)[nH]5)cc4)ccc3c2)[nH]1)c1ccccc1 (stereo partly drawn)
- EC50: 0.0145 nM

SMILES: COC(=O)N[C@H](C(=O)N1[C@@H]2CC[C@@H](C2)[C@H]1c1ncc(-c2ccc(-c3ccc4cc(-c5cnc([C@@H]6CC7(CC7)CN6C(=O)[C@H](NC(=O)OC)c6ccccc6)[nH]5)ccc4c3)cc2)[nH]1)C(C)C
- EC50: 0.0394 nM

SMILES: COC(=O)N[C@H](C(=O)N1CC2(CC2)C[C@H]1c1ncc(-c2ccc3cc(-c4ccc(-c5cnc([C@@H]6[C@H]7CC[C@H](C7)N6C(=O)[C@@H](NC(=O)OC)C(C)(C)OC)[nH]5)cc4)ccc3c2)[nH]1)C(C)C
- EC50: 0.0145 nM

SMILES: COC(=O)N[C@H](C(=O)N1CC2(CC2)C[C@H]1c1ncc(-c2ccc3cc(-c4ccc(-c5cnc([C@@H]6CCCN6C(=O)[C@@H](NC(=O)OC)C(C)OC)[nH]5)cc4)ccc3c2)[nH]1)C(C)C (stereo partly drawn)
- EC50: 0.0074 nM

SMILES: COC(=O)N[C@@H](CCC(F)(F)F)C(=O)N1CCC[C@H]1c1ncc(-c2ccc(-c3ccc(-c4cnc([C@@H]5CCCN5C(=O)[C@@H](NC(=O)OC)C(C)C)[nH]4)cc3)cc2)[nH]1
- EC50: 0.04 nM

SMILES: COC(=O)N[C@@H](CCC(F)(F)F)C(=O)N1CCC[C@H]1c1ncc(-c2ccc(-c3ccc(-c4cnc([C@@H]5CCCN5C(=O)[C@H](CCC(F)(F)F)NC(=O)OC)[nH]4)cc3)cc2)[nH]1
- EC50: 0.0635 nM

SMILES: COC(=O)N[C@H](C(=O)N1CCC[C@H]1c1ncc(-c2ccc(-c3ccc(-c4cnc([C@@H]5CC6(CCC6)ON5C(=O)[C@@H](NC(=O)OC)C(C)C)[nH]4)cc3)cc2)[nH]1)C(C)C
- EC50: 0.0083 nM

SMILES: COC(=O)N[C@H](C(=O)N1CCC[C@H]1c1ncc(-c2ccc(-c3ccc(-c4cnc([C@@H]5CC6(CN5C(=O)[C@@H](NC(=O)OC)C(C)C)OCCO6)[nH]4)cc3)cc2)[nH]1)C(C)C
- EC50: 0.0555 nM
